Results taken from patent US20150218141A1, “SUBSTITUTED CARBAMATE COMPOUNDS” (HOFFMANN-LA ROCHE INC, priority 2012, published 2015).
Counter-ions that a name gives are not always drawn.

biological target: T1, hTRPA1 (Homo sapiens, UniProt O75762); experiment: IC50 determination, dose response calcium flux (FLIPR) assay, ChanTest hTRPA1-CHO stably transfected cell line; format: cell-based; settings: CHO-K1 Tet-On hTRPA1 cells, 30' preincubation, agonist cinnamaldehyde final 100 uM
T1 construct: host or cells: CHO-K1 Tet-On, Clone 20 (Chinese Hamster Ovary cells, inducible expression)
T1 sequence (O75762 whole entry): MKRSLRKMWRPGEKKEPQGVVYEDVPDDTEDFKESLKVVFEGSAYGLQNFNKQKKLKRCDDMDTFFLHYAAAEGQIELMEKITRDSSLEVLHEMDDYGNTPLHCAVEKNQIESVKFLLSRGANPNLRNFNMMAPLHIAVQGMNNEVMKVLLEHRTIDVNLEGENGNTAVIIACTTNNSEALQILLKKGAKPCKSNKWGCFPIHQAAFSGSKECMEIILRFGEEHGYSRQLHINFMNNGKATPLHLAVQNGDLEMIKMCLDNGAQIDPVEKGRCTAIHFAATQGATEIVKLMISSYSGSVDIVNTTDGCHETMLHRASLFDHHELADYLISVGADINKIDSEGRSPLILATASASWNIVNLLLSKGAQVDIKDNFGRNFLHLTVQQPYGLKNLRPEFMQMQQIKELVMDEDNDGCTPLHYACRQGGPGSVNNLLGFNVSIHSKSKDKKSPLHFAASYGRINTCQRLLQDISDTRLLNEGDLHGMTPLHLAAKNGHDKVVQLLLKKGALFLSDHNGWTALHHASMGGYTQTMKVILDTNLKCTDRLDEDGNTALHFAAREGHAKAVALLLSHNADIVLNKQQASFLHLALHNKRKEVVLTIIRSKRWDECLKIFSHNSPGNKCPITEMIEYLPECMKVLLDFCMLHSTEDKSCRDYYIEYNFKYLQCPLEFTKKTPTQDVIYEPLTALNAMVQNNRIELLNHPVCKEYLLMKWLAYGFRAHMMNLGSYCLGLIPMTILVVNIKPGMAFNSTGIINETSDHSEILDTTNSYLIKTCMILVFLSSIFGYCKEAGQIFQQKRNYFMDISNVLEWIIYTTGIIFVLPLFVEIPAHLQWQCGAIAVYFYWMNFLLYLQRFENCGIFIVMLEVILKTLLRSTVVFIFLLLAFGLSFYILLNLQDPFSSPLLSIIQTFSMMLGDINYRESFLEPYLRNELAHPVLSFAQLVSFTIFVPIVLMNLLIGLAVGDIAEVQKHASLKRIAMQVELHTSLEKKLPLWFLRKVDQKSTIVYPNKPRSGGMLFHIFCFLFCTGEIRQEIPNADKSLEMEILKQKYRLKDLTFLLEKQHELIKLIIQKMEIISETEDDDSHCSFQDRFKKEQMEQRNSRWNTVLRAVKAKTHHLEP
In short: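 Doxycycline-induced (1 ug/ml, 24 h) CHO-K1 Tet-On hTRPA1 cells loaded with Cal-3 calcium dye, preincubated 30 min at RT with compound (11-point series from 20 or 30 μM top), then stimulated with cinnamaldehyde (final 100 uM). Peak fluorescence increase over per-well baseline read on FLIPR.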

Structure (SMILES) | IC50 [nM]
CS(=O)(=O)c1cccc(C2CCCN(C[C@H](OC(=O)Nc3ccc(F)cc3)C(F)(F)F)C2)c1 (stereo partly drawn) [Example 63, (4-Fluorophenyl)-carbamic acid (S)-2,2,2-trifluoro-1-[3-(3-methanesulfonylphenyl)-piperidin-1-ylmethyl]-ethyl ester hydrochloride] | 2910
O=C(Nc1ccc(Cl)cc1)O[C@@H](CN1CCC(Cc2ccccc2)C1)C(F)(F)F (stereo partly drawn) [Example 64, (4-Chlorophenyl)-carbamic acid (S)-1-(3-benzylpyrrolidin-1-ylmethyl)-2,2,2-trifluoro-ethyl ester] | 4990
O=C(Nc1ccc(F)c(Cl)c1)O[C@@H](CN1CCCC(c2cccc(C(F)(F)F)c2)C1)C(F)(F)F (stereo partly drawn) [Example 65, (3-Chloro-4-fluoro-phenyl)-carbamic acid (S)-2,2,2-trifluoro-1-[3-(3-trifluoromethyl-phenyl)-piperidin-1-ylmethyl]-ethyl ester] | 257
O=C(Nc1ccc(Cl)c(Cl)c1)O[C@@H](CN1CCCC(c2cccc(C(F)(F)F)c2)C1)C(F)(F)F (stereo partly drawn) [Example 66, (3,4-Dichlorophenyl)-carbamic acid(S)-2,2,2-trifluoro-1-[3-(3-trifluoromethyl-phenyl)piperidin-1-ylmethyl]-ethyl ester] | 200
O=C(Nc1ccc(F)c(F)c1)O[C@@H](CN1CCCC(c2cccc(C(F)(F)F)c2)C1)C(F)(F)F (stereo partly drawn) [Example 67, (3,4-Difluorophenyl)-carbamic acid (S)-2,2,2-trifluoro-1-[3-(3-trifluoromethylphenyl)piperidin-1-ylmethyl]-ethyl ester] | 177
O=C(Nc1ccc(Cl)nc1)O[C@@H](CN1CCCC(c2cccc(C(F)(F)F)c2)C1)C(F)(F)F (stereo partly drawn) [Example 68, (6-Chloropyridin-3-yl)-carbamic acid (S)-2,2,2-trifluoro-1-[3-(3-trifluoromethylphenyl)-piperidin-1-ylmethyl]-ethyl ester] | 192
